Assays:
[1] = target: Activin receptor type-2A (Homo sapiens) (UniProt P27037); settings: Compound concentration 1000.0 nM
[2] = target: ALK tyrosine kinase receptor (Homo sapiens) (UniProt Q9UM73); settings: Compound concentration 1000.0 nM
[3] = target: Serine/threonine-protein kinase BRSK1 (Homo sapiens) (UniProt Q8TDC3); settings: Compound concentration 1000.0 nM
[4] = target: Tyrosine-protein kinase BTK (Homo sapiens) (UniProt Q06187); settings: Compound concentration 1000.0 nM
[5] = target: Mitotic checkpoint serine/threonine-protein kinase BUB1 (Homo sapiens) (UniProt O43683); settings: Compound concentration 1000.0 nM
[6] = target: Cyclin-dependent kinase 13 (Homo sapiens) (UniProt Q14004); settings: Compound concentration 1000.0 nM
Cyclin-dependent kinase 13 (Homo sapiens), sequence (Q14004 whole entry, looked up): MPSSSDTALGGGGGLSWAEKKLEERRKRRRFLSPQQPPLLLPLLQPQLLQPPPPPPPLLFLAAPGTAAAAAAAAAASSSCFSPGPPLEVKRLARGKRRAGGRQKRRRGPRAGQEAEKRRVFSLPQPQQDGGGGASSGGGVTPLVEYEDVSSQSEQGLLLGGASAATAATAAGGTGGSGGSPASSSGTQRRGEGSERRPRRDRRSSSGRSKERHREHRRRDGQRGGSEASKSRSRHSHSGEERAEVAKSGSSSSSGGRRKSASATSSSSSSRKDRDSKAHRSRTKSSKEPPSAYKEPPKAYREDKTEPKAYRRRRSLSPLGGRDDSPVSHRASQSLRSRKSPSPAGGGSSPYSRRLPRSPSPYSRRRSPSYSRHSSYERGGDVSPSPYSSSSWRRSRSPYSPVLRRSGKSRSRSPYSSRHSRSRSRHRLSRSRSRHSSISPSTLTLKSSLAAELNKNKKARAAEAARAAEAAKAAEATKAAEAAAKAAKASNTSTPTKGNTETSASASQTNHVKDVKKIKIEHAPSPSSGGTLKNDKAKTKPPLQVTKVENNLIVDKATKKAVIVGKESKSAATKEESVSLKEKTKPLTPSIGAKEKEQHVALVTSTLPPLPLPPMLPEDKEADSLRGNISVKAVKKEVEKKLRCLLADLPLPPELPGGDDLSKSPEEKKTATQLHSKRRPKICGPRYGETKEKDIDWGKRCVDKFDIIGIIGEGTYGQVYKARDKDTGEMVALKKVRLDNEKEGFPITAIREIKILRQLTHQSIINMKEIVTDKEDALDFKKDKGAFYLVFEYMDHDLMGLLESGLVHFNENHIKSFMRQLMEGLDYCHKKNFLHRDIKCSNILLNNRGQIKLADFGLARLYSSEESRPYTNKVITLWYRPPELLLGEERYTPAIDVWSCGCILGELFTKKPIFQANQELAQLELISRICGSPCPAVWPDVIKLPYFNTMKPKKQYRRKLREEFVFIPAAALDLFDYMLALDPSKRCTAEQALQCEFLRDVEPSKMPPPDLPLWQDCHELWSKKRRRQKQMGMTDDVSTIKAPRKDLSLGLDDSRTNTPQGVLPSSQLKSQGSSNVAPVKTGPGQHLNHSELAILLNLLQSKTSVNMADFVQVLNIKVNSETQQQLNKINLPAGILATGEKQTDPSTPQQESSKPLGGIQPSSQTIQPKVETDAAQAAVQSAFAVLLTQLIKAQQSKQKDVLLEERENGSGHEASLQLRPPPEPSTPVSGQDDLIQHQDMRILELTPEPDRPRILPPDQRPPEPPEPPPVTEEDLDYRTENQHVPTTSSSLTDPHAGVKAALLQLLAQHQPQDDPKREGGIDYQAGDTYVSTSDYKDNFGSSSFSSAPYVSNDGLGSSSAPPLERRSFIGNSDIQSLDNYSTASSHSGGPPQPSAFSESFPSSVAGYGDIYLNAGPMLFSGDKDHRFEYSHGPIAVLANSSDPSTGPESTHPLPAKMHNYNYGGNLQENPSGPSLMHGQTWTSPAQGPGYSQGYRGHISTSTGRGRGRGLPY

[7] = target: Cyclin-dependent kinase 7 (Homo sapiens) (UniProt P50613); settings: Compound concentration 1000.0 nM
Cyclin-dependent kinase 7 (Homo sapiens), sequence (P50613 whole entry): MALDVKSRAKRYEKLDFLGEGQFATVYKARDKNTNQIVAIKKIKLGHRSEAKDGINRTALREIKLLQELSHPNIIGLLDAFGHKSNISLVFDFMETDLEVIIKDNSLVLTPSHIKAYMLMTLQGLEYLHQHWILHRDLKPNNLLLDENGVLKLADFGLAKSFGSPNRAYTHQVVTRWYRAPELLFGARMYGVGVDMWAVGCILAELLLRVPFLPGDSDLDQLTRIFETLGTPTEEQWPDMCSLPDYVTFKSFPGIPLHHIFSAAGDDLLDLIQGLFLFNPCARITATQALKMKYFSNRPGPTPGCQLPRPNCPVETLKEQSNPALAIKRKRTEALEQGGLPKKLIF

[8] = target: Dual specificity protein kinase CLK4 (Homo sapiens) (UniProt Q9HAZ1); settings: Compound concentration 1000.0 nM
[9] = target: Discoidin domain-containing receptor 2 (Homo sapiens) (UniProt Q16832); settings: Compound concentration 1000.0 nM
[10] = target: Mitogen-activated protein kinase kinase kinase 12 (Homo sapiens) (UniProt Q12852); settings: Compound concentration 1000.0 nM
[11] = target: Dual specificity tyrosine-phosphorylation-regulated kinase 2 (Homo sapiens) (UniProt Q92630); settings: Compound concentration 1000.0 nM
[12] = target: Ephrin type-B receptor 1 (Homo sapiens) (UniProt P54762); settings: Compound concentration 1000.0 nM
[13] = target: Ephrin type-B receptor 6 (Homo sapiens) (UniProt O15197); settings: Compound concentration 1000.0 nM
[14] = target: Focal adhesion kinase 1 (Homo sapiens) (UniProt Q05397); settings: Compound concentration 1000.0 nM
[15] = target: Tyrosine-protein kinase Fer (Homo sapiens) (UniProt P16591); settings: Compound concentration 1000.0 nM
Tyrosine-protein kinase Fer (Homo sapiens), sequence (P16591 whole entry, looked up): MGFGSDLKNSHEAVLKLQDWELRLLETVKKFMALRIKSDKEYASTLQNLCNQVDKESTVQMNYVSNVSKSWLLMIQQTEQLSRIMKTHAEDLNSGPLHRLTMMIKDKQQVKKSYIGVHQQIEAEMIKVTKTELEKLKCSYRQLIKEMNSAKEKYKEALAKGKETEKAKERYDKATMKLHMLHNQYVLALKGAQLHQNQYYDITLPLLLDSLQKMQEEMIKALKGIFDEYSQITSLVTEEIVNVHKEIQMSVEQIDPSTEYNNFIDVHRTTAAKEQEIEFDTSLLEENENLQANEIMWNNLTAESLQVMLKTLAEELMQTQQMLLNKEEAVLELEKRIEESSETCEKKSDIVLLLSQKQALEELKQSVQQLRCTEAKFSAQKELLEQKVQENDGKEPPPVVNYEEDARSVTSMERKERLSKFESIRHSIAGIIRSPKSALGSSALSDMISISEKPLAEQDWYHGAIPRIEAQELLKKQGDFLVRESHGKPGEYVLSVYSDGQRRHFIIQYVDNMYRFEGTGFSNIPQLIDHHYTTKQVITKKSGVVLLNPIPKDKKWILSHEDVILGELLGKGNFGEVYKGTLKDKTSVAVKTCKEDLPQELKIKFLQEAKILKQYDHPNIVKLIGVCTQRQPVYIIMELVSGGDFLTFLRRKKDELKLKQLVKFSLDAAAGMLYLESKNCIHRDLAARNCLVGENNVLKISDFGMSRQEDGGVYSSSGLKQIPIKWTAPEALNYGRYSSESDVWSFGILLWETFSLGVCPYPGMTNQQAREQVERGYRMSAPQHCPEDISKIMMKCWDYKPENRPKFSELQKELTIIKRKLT

[16] = tested on: Receptor-type tyrosine-protein kinase FLT3 (Homo sapiens), P36888 [UNDEFINED MUTATION]; settings: Compound concentration 1000.0 nM
[17] = target: Tyrosine-protein kinase FRK (Homo sapiens) (UniProt P42685); settings: Compound concentration 1000.0 nM
Tyrosine-protein kinase FRK (Homo sapiens), sequence (P42685 whole entry): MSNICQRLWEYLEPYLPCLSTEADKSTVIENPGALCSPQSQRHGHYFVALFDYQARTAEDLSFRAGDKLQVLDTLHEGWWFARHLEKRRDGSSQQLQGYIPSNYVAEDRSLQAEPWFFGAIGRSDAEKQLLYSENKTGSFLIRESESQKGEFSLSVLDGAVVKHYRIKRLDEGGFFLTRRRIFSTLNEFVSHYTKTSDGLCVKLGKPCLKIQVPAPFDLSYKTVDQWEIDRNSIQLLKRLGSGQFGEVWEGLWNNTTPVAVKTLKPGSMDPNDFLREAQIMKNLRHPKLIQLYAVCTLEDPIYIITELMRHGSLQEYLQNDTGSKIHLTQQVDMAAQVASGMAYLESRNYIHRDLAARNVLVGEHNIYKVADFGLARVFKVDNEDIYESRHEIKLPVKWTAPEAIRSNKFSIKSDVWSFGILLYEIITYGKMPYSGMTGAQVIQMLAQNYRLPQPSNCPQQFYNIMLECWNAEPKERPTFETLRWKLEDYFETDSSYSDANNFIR

[18] = target: Hormonally up-regulated neu tumor-associated kinase (Homo sapiens) (UniProt P57058); settings: Compound concentration 1000.0 nM
[19] = target: Interleukin-1 receptor-associated kinase 4 (Homo sapiens) (UniProt Q9NWZ3); settings: Compound concentration 1000.0 nM
[20] = target: MAP kinase-activated protein kinase 5 (Homo sapiens) (UniProt Q8IW41); settings: Compound concentration 1000.0 nM
[21] = target: Serine/threonine-protein kinase MRCK alpha (Homo sapiens) (UniProt Q5VT25); settings: Compound concentration 1000.0 nM
[22] = target: Serine/threonine-protein kinase MRCK beta (Homo sapiens) (UniProt Q9Y5S2); settings: Compound concentration 1000.0 nM
[23] = target: Myosin-IIIa (Homo sapiens) (UniProt Q8NEV4); settings: Compound concentration 1000.0 nM
[24] = target: Serine/threonine-protein kinase Nek9 (Homo sapiens) (UniProt Q8TD19); settings: Compound concentration 1000.0 nM
[25] = target: Serine/threonine-protein kinase PAK 6 (Homo sapiens) (UniProt Q9NQU5); settings: Compound concentration 1000.0 nM
[26] = target: Cyclin-dependent kinase 17 (Homo sapiens) (UniProt Q00537); settings: Compound concentration 1000.0 nM
Cyclin-dependent kinase 17 (Homo sapiens), sequence (Q00537 whole entry, looked up): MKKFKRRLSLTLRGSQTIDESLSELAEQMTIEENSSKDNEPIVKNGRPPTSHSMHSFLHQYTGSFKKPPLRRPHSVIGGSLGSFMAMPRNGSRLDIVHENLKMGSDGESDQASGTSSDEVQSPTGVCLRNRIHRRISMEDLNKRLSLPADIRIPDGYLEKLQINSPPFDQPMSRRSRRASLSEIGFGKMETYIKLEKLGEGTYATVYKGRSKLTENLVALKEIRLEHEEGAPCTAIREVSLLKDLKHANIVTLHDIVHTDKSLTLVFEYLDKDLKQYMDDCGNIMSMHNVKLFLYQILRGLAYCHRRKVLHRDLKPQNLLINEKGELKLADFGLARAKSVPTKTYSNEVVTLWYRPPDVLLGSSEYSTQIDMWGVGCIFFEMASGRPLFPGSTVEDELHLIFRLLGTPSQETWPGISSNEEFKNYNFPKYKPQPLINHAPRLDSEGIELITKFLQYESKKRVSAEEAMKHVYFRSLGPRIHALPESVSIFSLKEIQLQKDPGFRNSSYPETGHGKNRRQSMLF

[27] = target: Serine/threonine-protein kinase pim-1 (Homo sapiens) (UniProt P11309); settings: Compound concentration 1000.0 nM
[28] = target: Membrane-associated tyrosine- and threonine-specific cdc2-inhibitory kinase (Homo sapiens) (UniProt Q99640); settings: Compound concentration 1000.0 nM
[29] = target: Serine/threonine-protein kinase PLK4 (Homo sapiens) (UniProt O00444); settings: Compound concentration 1000.0 nM
[30] = target: cAMP-dependent protein kinase catalytic subunit PRKX (Homo sapiens) (UniProt P51817); settings: Compound concentration 1000.0 nM
[31] = target: RAF proto-oncogene serine/threonine-protein kinase (Homo sapiens) (UniProt P04049); settings: Compound concentration 1000.0 nM
[32] = target: Ribosomal protein S6 kinase alpha-5 (Homo sapiens) (UniProt O75582); settings: Compound concentration 1000.0 nM
Ribosomal protein S6 kinase alpha-5 (Homo sapiens), sequence (O75582 whole entry, looked up): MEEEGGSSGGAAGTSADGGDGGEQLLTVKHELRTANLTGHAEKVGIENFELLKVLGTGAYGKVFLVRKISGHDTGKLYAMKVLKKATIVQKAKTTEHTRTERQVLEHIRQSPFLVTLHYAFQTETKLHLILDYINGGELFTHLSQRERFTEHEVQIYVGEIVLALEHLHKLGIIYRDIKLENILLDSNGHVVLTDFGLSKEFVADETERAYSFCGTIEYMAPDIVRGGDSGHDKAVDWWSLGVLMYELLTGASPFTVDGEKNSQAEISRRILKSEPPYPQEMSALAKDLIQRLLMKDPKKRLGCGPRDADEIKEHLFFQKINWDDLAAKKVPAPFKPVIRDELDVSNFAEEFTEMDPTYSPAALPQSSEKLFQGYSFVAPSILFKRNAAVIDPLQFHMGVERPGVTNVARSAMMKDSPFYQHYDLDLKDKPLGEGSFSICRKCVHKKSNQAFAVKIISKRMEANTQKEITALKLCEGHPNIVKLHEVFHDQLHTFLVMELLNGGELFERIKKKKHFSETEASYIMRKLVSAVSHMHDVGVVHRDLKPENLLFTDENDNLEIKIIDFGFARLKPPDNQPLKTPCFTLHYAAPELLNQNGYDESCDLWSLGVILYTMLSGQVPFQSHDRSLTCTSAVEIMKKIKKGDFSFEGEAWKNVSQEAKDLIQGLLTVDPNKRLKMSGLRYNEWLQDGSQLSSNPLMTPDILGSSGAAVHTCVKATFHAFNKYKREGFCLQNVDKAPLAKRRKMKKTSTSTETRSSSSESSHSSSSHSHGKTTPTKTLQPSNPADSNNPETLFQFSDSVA

[33] = target: Ribosomal protein S6 kinase alpha-6 (Homo sapiens) (UniProt Q9UK32); settings: Compound concentration 1000.0 nM
[34] = target: Serine/threonine-protein kinase 36 (Homo sapiens) (UniProt Q9NRP7); settings: Compound concentration 1000.0 nM
[35] = target: Serine/threonine-protein kinase TAO1 (Homo sapiens) (UniProt Q7L7X3); settings: Compound concentration 1000.0 nM
[36] = target: Serine/threonine-protein kinase TNNI3K (Homo sapiens) (UniProt Q59H18); settings: Compound concentration 1000.0 nM
[37] = target: High affinity nerve growth factor receptor (Homo sapiens) (UniProt P04629); settings: Compound concentration 1000.0 nM
[38] = target: Serine/threonine-protein kinase 25 (Homo sapiens) (UniProt O00506); settings: Compound concentration 1000.0 nM
[39] = target: T1, 5-hydroxytryptamine receptor 3A (Homo sapiens) (UniProt P46098); settings: Compound concentration 10.0 uM
T1 sequence (whole entry): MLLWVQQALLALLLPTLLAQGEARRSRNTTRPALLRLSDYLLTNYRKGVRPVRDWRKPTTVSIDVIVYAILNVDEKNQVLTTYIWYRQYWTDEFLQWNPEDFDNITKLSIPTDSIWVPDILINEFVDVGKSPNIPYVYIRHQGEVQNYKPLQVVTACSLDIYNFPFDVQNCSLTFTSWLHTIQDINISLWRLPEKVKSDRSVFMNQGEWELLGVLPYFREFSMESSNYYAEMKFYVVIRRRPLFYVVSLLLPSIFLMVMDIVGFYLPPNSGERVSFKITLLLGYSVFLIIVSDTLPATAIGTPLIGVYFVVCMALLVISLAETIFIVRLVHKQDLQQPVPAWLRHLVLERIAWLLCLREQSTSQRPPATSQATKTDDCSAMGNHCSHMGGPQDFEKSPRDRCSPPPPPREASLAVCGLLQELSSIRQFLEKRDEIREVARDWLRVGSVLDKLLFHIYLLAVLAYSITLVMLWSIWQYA

Activin receptor type-2A (Homo sapiens), sequence (P27037 whole entry): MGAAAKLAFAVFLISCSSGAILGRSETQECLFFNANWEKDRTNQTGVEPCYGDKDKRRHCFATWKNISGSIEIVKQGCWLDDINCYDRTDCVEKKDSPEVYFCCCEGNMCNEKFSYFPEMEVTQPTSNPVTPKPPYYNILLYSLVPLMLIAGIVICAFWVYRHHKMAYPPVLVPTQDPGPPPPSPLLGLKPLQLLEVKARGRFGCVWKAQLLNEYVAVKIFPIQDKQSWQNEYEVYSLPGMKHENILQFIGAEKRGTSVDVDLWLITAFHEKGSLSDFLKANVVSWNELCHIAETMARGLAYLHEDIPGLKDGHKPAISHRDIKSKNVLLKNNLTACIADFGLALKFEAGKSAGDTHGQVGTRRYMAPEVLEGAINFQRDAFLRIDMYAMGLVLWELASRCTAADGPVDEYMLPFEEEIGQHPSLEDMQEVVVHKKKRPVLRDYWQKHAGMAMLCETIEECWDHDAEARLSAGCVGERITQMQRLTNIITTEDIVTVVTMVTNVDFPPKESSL

CCS(=O)(=O)c1cc2cc(C[C@](O)(CC(C)(C)c3ccc(F)cc3C(N)=O)C(F)(F)F)[nH]c2cn1
inactive: residual activity [1] 100% | residual activity [2] 100% | residual activity [3] 99% | residual activity [4] 100% | residual activity [5] 86% | residual activity [6] 100% | residual activity [7] 95% | residual activity [8] 95% | residual activity [9] 88% | residual activity [10] 100% | residual activity [11] 92% | residual activity [12] 86% | residual activity [13] 100% | residual activity [14] 97% | residual activity [15] 96% | residual activity [16] 95% | residual activity [17] 80% | residual activity [18] 100% | residual activity [19] 100% | residual activity [20] 93% | residual activity [21] 89% | residual activity [22] 100% | residual activity [23] 94% | residual activity [24] 99% | residual activity [25] 100% | residual activity [26] 88% | residual activity [27] 100% | residual activity [28] 100% | residual activity [29] 80% | residual activity [30] 100% | residual activity [31] 83% | residual activity [32] 94% | residual activity [33] 82% | residual activity [34] 100% | residual activity [35] 88% | residual activity [36] 80% | residual activity [37] 82% | residual activity [38] 86% | inhibition [39] 32.2%

CCS(=O)(=O)c1cc2cc(C[C@@](O)(CC(C)(C)c3ccc(F)cc3C(N)=O)C(F)(F)F)[nH]c2cn1
inactive: residual activity [1] 94% | residual activity [2] 100% | residual activity [3] 73% | residual activity [4] 100% | residual activity [5] 66% | residual activity [6] 91% | residual activity [7] 99% | residual activity [8] 100% | residual activity [9] 100% | residual activity [10] 83% | residual activity [11] 83% | residual activity [12] 92% | residual activity [13] 100% | residual activity [14] 100% | residual activity [15] 74% | residual activity [16] 86% | residual activity [17] 100% | residual activity [18] 100% | residual activity [19] 100% | residual activity [20] 81% | residual activity [21] 100% | residual activity [22] 99% | residual activity [23] 80% | residual activity [24] 83% | residual activity [25] 77% | residual activity [26] 82% | residual activity [27] 97% | residual activity [28] 67% | residual activity [29] 87% | residual activity [30] 77% | residual activity [31] 81% | residual activity [32] 100% | residual activity [33] 100% | residual activity [34] 98% | residual activity [35] 73% | residual activity [36] 100% | residual activity [37] 74% | residual activity [38] 87% | inhibition [39] 21.1%
